# Measurements reported in patent US20240197596A1, “COMPOUNDS USEFUL AS HAIR DYES” (National University of Singapore, priority 2021, published 2024).
# “Also recorded” adds a separate entry of the source. Like-named read-outs stand apart in the source and are kept apart here.
# How the values were obtained:
# [1] = system: HaCaT cells; test: MTT assay on HaCaT cells; assay type: cell-based; settings: Homo sapiens, 72 h
# Description: HaCaT (human, adult, low calcium, high temperature, skin keratinocyte) cell suspension was adjusted to 5×10^3 cells per well and seeded in 96-well plates, then incubated at 37° C. with 5% CO2. After 24 h, 10 mM stock solutions of N1-N13 in autoclaved milli-Q water were prepared and serially diluted concentrations were added to the wells. Each concentration was performed in 6-replicates, and seeded wells with only media and no compound were used as controls while wells with only media were used as blanks. The plate was incubated for 72 h, after which 100 μL of MTT reagent was added and the plate was further incubated for 3 h before adding 100 μL of DMSO. Subsequently, the plate was shaken for 20 min, and then absorbance at 570 nm was determined using a Bio-Tek plate reader.
# [2] = system: THP-1 cells; test: h-CLAT assay on THP-1 cells: markers against OECD cut-off, prediction, cell viability; assay type: cell-based, human; settings: for CD54 and CD86 marker expression against OECD cut-off: 8 doses based on CV75, 24 h
# Description: The assay was conducted as per the literature (Toxicol In Vitro, 2006, 20, 767-73). THP-1 cells were cultured in 24-well plates (1×10^6 cells/1 mL/well) with various concentrations of each chemical (N1-N13), +ve control (DNCB), −ve control for 24 h.
# THP-1 cells were cultured in 24-well plates (1×10^6 cells/mL/well) and treated with recommended concentrations of each chemical (N1-N13), positive control (DNCB) or negative control (SLS) for 24 h. THP-1 cells were cultured and treated with 8 doses of N1-N13 based on the CV75 namely, 1.2×CV75, 1×CV75, 1/1.2×CV75, 1/1.2^2×CV75, 1/1.23×CV75, 1/1.24×CV75, 1/1.2^5×CV75 and 1/1.2^6×CV75. After 24 h, cells were transferred to 1.5 mL of microtubes and centrifuged at 450 g, 5 min, 4° C. Supernatant was discarded and cells were washed with 1 mL of FACS buffer (PBS+FBS+HEPES). The cells were centrifuged at 450 g, 5 min, 4° C. 50 μL of Fc block (0.01% of Globlins Cohn fraction II, III) was added and incubated for 10 min at 4° C. The cells were stained with 20 μL APC CD54 (Mouse IgG1, K, BD Biosciences, San Diego, CA, USA), 20 μL FITC CD86 (Mouse IgG1, K, BD Biosciences, San Diego, CA, USA) or their respective isotype controls and incubated for 15 min at room temperature in dark. After incubation, the antibodies were diluted with 200 μl FACS buffer. The cells were washed with 1 mL FACS buffer twice. Further, 200 μL Propidium iodide (PI, 0.625 μg/mL) prepared in FACS buffer was added before the flow cytometry analysis. Flow cytometric analysis was performed with BD LSR Fortessa™ (Becton Dickinson, San Jose, CA, USA) In total, 10,000 living cells were analysed, and data were processed using Flowjo software (v10.6, Ashland, OR, USA). The test concentration providing a cell viability of 75% (CV75) was derived from the dose response curve and was calculated by log-linear interpolation.
# Geometric mean fluorescence intensity (MFI) was measured for CD54^+ and CD86^+ cells separately and percentage relative fluorescence intensity (% RFI), reflective of CD86 and CD54 relative expression was calculated as described below. RFI was not calculated if cell viability fell below 50%.
# All chemicals were tested in three independent experiments. If in two of three independent experiments at any dose exceeded 150% RFI for CD86, or 200% RFI for CD54, the chemicals could be identified as a sensitizer. Otherwise it is identified as a non-sensitizer.
# [3] = system: cysteine heptapeptide (Ac-RFAACAA-COOH) and lysine heptapeptide (Ac-RFAAKAA-COOH); test: Direct Peptide Reactivity Assay (DPRA); assay type: biochemical; settings: from mean peptide depletion
# Description: The assay was conducted on N1-N13 in triplicates with the respective solvent used to prepare compound stock solutions as control. A stock concentration of 20 mM was prepared instead of the recommended 100 mM by OECD due to scarcity of compounds. The various constituents of the incubation mixture were freshly prepared to prevent stability issues that could cause variations in results. An incubation mixture with the recommended peptide to test compound ratios of 1:10 for cysteine heptapeptide and 1:50 for lysine heptapeptide (OECD. Test No. 442C: In Chemico Skin Sensitisation 2020) was prepared then incubated at 25° C. for 24 h in a shaking incubator (Toxicol Sci. 2012; 129(2):421-31).
# At 24 h, the incubation mixture was quenched with 75 μL of 95% ACN/H2O containing 200 μM Leucine Enkephalin (Internal Standard). For cysteine DPRA, 100 μL of quenched mixture was spiked into 90 μL of 2% ACN/H2O and 10 μL of freshly prepared 0.016 mM 1,4-Dithiothreitol (DTT) solution. DTT maintains the integrity of thiol groups by preventing the dimerization of thiol groups and degradation of di-adducts to mono-adducts. This second mixture was then incubated at 40° C. for 30 min in a shaking incubator. For lysine DPRA, 10 μL of quenched mixture was spiked into 190 μL of 2% ACN/H2O. All 200 μL of mixtures were transferred into a 96-well plate and sent for analysis with Liquid Chromatography-Tandem Mass Spectrometry (LC-MS/MS).
# [4] = system: IL-1α; test: IL-1α release assay (ELISA) in THP-1 cells; assay type: cell-based, human; settings: 24 h; for release of IL-1α: CV75 dose
# Description: (§1) CV75 values (concentration showing 75% of THP-1 cell survival) were determined as per the procedure described above in section A of this method. The IL-8 and IL-1α release assay was performed as described in Toxicol In Vitro. 2003, 17(3), 311-321. A Chemokine immunosorbent assay Bio-legend ELISA Max kit was used to quantify the levels of available IL-8 and IL-1α protein. The supernatant media of untreated THP-1 cells was treated with standards, test samples N1-N13 and DMSO in 96 well plate and then was recovered after 24 h of culture. IL-8 and IL-1α was measured by ELISA in 96-well microtiter plates according to the manufacturer protocol (Biolegend, ELISA MAX™, Singapore).
# [5] = system: IL-8; test: IL-8 release assay (ELISA) in THP-1 cells; assay type: cell-based, human; settings: CV75 dose, 24 h
# Description: as §1
# [6] = HaCaT cells, MTT, read-out: IC50
SMILES,"IC50 [1, 6]",CD54 and CD86 marker expression against OECD cut-off [2],release of IL-1α [4],release of IL-8 [5],further results
"COC(COc1cc(N)ccc1N)OC [Compound N1, 2-(2,2-dimethoxyethoxy)benzene-1,4-diamine]",508 µM,did not express the markers at any tested dose level,–,–,–
"CCC(=O)COc1cc(N)ccc1N [Compound N11, 1-(2,5-diaminophenoxy)butan-2-one]",196 µM,did not express the markers at any tested dose level,–,–,sensitizing potential (DPRA) [3]: moderate sensitizers
"Nc1ccc(N)c(OCC2CO2)c1 (stereo not shown) [Compound N4, 2-(oxiran-2-ylmethoxy)benzene-1,4-diamine]",–,did not express the markers at any tested dose level,slight release,–,"IC50 ([1]; HaCaT): 578 µM; IL-1α release, times lower than PPD [4]: 7-8"
"COCCOCCOc1cc(N)ccc1N [Compound N5, 2-[2-(2-methoxyethoxy)ethoxy]benzene-1,4-diamine]",43.3 µM,failed to induce marker expression above the recommended % RFI cut-off,slight elevation; also recorded: marginal release,slight elevation; also recorded: marginal release,–
"N#CCOc1cc(N)ccc1N [Compound N6, 2-(2,5-diaminophenoxy)acetonitrile]",–,–,did not release significant amounts,did not release significant amounts,"IC50 ([1]; HaCaT): > 1000 µM; marker induction, times lower than DNCB ([2]; human, 24 h): 3"
"CC(O)COc1cc(N)ccc1N (stereo not shown) [Compound N10, 1-(2,5-diaminophenoxy)propan-2-ol]",283 µM,did not express the markers at any tested dose level,–,–,–
"COCOc1cc(N)ccc1N [Compound N2, 2-(methoxymethoxy)benzene-1,4-diamine]",297 µM,–,–,–,"marker induction, times lower than DNCB [2]: 3"
"Nc1ccc(N)c(OCCO)c1 [Compound N9, 2-(2,5-diaminophenoxy)ethan-1-ol]",272 µM,failed to induce marker expression above the recommended % RFI cut-off,–,–,–
"Nc1ccc(N)c(OCOCO)c1 [Compound N8, ((2,5-diaminophenoxy)methoxy)methanol]",219 µM,failed to induce marker expression above the recommended % RFI cut-off,–,–,–
"COCCOc1cc(N)ccc1N [Compound N7, 2-(2-methoxyethoxy)benzene-1,4-diamine]",33.5 µM,failed to induce marker expression above the recommended % RFI cut-off,slight elevation; also recorded: marginal release,slight elevation; also recorded: marginal release,sensitizing potential (DPRA) [3]: moderate sensitization
"CCOCOc1cc(N)ccc1N [Compound N3, 2-(ethoxymethoxy)benzene-1,4-diamine]",457 µM,–,–,–,"marker induction, times lower than DNCB [2]: 3"
"C=C(C)Oc1cc(N)ccc1N [Compound N12, 2-(prop-1-en-2-yloxy)benzene-1,4-diamine]",127 µM,failed to induce marker expression above the recommended % RFI cut-off,slight elevation; also recorded: marginal release,slight elevation; also recorded: marginal release,–
"CNCCOc1cc(N)ccc1N [Compound N13, 2-(2-(methylamino)ethoxy)benzene-1,4-diamine]",120 µM,–,slight elevation; also recorded: marginal release,slight elevation; also recorded: marginal release,sensitizing potential (DPRA) [3]: moderate sensitizers
